Data as given in patent US8415469B2, “Compounds and methods for kinase modulation, and indications therefor” (Plexxikon Inc., priority 2005, dated 2013).

Assays:
Assay type in all cases: biochemical
Pyk2 = target: T1, Pyk2 (Homo sapiens, UniProt Q14289); assay: AlphaScreen kinase assay, Pyk2; settings: read-out: IC50, activity toward kinase Pyk2
T1 construct: purchased Upstate Biotechnology

Jnk2 = target: T2, Jnk2 (Homo sapiens, UniProt P45984); assay: AlphaScreen kinase assay, Jnk2; settings: read-out: IC50, activity toward kinase Jnk2
T2 construct: purchased Roche Protein Expression Group (Indianapolis, IN)
T2 sequence (P45984 whole entry): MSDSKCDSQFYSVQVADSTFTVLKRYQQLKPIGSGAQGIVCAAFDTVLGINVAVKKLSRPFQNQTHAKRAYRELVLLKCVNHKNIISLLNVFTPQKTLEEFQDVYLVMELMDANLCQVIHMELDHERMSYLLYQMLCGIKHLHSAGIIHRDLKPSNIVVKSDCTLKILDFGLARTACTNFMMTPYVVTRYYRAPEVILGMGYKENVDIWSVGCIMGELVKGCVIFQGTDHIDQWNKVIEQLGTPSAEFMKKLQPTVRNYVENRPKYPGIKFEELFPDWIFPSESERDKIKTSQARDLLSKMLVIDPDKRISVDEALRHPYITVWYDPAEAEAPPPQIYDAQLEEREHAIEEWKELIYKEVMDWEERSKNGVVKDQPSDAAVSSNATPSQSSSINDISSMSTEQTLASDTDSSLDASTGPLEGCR
Procedure, shortened: (§1)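 Stock 20 mM compound in DMSO, diluted 1:3 serially to 8 final concentrations. Kinase phosphorylates biotinylated peptide; donor (streptavidin) and acceptor (anti-phospho antibody) beads then associate. Reduced acceptor emission indicates inhibition.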

Flt4 = target: T3, Flt4 (Homo sapiens, UniProt P35916); assay: AlphaScreen kinase assay, Flt4; settings: read-out: IC50, activity toward kinase Flt4
T3 construct: purchased ProQinase GmbH (Freiburg, Germany)
T3 sequence (P35916 25-1363): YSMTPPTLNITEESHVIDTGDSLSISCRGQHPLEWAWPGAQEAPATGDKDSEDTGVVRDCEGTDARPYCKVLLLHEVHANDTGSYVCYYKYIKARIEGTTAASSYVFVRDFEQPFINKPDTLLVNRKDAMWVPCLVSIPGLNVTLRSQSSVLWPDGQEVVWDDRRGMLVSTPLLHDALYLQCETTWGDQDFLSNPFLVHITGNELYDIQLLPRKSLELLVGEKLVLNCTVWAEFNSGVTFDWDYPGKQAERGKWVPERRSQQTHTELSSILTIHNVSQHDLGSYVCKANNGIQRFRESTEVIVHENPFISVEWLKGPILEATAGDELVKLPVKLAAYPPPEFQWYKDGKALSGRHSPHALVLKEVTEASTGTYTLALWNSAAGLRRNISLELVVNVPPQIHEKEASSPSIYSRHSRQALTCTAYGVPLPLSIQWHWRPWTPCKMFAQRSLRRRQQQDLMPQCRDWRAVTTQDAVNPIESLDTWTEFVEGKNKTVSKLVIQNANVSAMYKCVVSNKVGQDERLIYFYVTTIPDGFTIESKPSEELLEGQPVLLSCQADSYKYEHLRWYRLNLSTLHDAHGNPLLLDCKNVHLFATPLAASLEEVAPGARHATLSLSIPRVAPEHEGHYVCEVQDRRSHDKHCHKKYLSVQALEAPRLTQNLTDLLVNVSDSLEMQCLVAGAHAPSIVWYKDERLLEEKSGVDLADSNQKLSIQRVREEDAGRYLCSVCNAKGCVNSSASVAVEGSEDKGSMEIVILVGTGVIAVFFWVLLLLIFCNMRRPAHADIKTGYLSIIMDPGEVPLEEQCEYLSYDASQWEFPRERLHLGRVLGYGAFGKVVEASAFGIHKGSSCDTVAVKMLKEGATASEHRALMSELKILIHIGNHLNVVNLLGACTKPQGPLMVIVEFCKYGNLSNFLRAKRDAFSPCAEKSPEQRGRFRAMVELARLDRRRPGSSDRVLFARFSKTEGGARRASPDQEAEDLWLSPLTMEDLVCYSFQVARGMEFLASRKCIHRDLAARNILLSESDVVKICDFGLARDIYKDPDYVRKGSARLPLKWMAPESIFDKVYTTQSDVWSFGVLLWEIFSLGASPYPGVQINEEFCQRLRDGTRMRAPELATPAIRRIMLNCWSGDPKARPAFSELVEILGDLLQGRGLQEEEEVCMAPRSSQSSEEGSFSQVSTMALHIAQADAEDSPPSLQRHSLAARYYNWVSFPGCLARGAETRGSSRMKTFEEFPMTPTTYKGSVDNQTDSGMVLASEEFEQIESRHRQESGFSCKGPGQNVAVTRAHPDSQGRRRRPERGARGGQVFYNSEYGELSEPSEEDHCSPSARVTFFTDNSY
Procedure, shortened: as §1

MAP2K1 = target: T4, MAP2K1 (Homo sapiens, UniProt Q02750); assay: Z'-Lyte FRET kinase assay (Invitrogen), MAP2K1; settings: read-out: IC50, activity toward kinase MAP2K1
T4 construct: purchased Invitrogen (assay run by Invitrogen)
T4 sequence (Q02750 whole entry): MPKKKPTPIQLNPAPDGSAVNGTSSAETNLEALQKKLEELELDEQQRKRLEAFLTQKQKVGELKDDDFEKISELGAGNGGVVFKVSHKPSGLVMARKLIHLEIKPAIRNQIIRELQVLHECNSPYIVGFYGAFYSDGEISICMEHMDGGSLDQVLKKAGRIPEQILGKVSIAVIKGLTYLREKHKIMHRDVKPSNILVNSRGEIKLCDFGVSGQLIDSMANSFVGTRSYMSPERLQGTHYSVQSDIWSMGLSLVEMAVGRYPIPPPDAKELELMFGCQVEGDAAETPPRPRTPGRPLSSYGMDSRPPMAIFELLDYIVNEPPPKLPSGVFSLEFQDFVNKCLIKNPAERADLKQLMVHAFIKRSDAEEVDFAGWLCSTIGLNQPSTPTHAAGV

T1 sequence (Q14289 whole entry): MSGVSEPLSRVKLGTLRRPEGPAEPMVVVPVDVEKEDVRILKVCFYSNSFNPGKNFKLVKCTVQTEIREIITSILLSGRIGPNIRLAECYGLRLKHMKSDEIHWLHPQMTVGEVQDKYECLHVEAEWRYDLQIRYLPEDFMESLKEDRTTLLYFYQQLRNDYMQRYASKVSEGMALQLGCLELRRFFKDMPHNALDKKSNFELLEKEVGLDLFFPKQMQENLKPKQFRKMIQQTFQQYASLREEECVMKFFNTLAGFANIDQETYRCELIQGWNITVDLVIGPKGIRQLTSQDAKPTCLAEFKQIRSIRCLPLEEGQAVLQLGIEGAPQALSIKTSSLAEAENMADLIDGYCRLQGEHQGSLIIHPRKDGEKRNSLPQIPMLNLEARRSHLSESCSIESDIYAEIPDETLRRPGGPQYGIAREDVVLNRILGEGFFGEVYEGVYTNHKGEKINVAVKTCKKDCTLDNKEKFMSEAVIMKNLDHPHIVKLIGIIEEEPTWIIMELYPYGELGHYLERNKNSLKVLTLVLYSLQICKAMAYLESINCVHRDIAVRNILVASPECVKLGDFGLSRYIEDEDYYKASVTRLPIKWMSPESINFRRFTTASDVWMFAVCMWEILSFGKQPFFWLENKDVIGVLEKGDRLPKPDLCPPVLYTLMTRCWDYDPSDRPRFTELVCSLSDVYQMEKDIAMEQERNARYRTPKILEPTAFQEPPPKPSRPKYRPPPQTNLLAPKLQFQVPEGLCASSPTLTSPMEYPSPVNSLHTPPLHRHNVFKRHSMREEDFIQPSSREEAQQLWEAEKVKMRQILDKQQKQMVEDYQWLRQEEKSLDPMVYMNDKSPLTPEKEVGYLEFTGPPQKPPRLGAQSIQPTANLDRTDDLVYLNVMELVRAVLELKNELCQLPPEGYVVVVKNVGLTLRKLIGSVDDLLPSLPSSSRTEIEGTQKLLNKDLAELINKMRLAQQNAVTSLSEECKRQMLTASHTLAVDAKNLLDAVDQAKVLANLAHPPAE

Structure (SMILES) | IC50 (Pyk2) [µM] | IC50 (Jnk2) [µM] | also measured
Oc1cccc(Cc2c[nH]c3ncc(-c4cccs4)cc23)c1F [Compound P-0052, 2-Fluoro-3-(5-thiophen-2-yl-1H-pyrrolo[2,3-b]pyridin-3-ylmethyl)-phenol] | ≤ 10 | ≤ 10 | 
O=C(O)/C=C/c1cccc(-c2cnc3[nH]cc(C(=O)c4ccccc4F)c3c2)c1 [Compound P-0033] |  | ≤ 10 | 
Oc1cccc(Cc2c[nH]c3ncc(-c4ccsc4)cc23)c1 [Compound P-0056] | ≤ 10 | ≤ 10 | 
Oc1ccc(F)c(Cc2c[nH]c3ncc(Br)cc23)c1F [Compound P-0122, 3-(5-Bromo-1H-pyrrolo[2,3-b]pyridin-3-ylmethyl)-2,4-difluoro-phenol] | ≤ 10 |  | 
Cc1ccccc1C(=O)c1c[nH]c2nccc(-c3ccc(C(N)=O)cc3)c12 [Compound P-0017] |  |  | IC50 (MAP2K1): ≤ 10 µM
Nc1cccc(-c2ccnc3[nH]cc(C(=O)c4ccccc4F)c23)c1 [Compound P-0022] |  |  | IC50 (MAP2K1): ≤ 10 µM
O=C(Nc1ccc(Cc2c[nH]c3ncccc23)cc1)Nc1cccc(C(F)(F)F)c1 [Compound P-0262, 1-[4-(1H-Pyrrolo[2,3-b]pyridin-3-ylmethyl)-phenyl]-3-(3-trifluoromethyl-phenyl)-urea] | ≤ 10 |  | 
O=C(c1ccc(O)cc1Cl)c1c[nH]c2ncccc12 [Compound P-0021] | ≤ 10 |  | 
O=C(c1ccccc1F)c1c[nH]c2nccc(-c3ccsc3)c12 [Compound P-0051] |  |  | IC50 (MAP2K1): ≤ 10 µM
Nc1cccc(-c2ccnc3[nH]cc(C(=O)c4cc(F)ccc4F)c23)c1 [Compound P-0046] |  |  | IC50 (MAP2K1): ≤ 10 µM
O=C(c1cccc(O)c1)c1c[nH]c2nccc(-c3cc(F)cc(F)c3)c12 [Compound P-0039] |  |  | IC50 (Flt4): ≤ 10 µM
Oc1cc(O)cc(Cc2c[nH]c3ncc(-c4ccsc4)cc23)c1 [Compound P-0093] |  |  | IC50 (Flt4): ≤ 10 µM
NC(=O)c1ccc(-c2ccnc3[nH]cc(C(=O)c4ccccc4F)c23)cc1 [Compound P-0014] |  |  | IC50 (MAP2K1): ≤ 10 µM

Second part, led by results:

IC50 (Pyk2) [µM] | IC50 (Jnk2) [µM] | Structure (SMILES) | also measured
 | ≤ 10 | Cc1c(NS(C)(=O)=O)cccc1C(=O)c1c[nH]c2ncc(-c3ccccc3)cc12 [Compound P-0082, N-[2-Methyl-3-(5-phenyl-1H-pyrrolo[2,3-b]pyridine-3-carbonyl)-phenyl]-methanesulfonamide] | 
≤ 10 |  | CN(C)S(=O)(=O)Nc1ccc(F)c(Cc2c[nH]c3ncc(-c4cccnc4)cc23)c1F [Compound P-0166] | 
 | ≤ 10 | COc1ccc(F)c(C(=O)c2c[nH]c3ncc(-c4cccnc4)cc23)c1 [Compound P-0090] | IC50 (Flt4): ≤ 10 µM
≤ 10 |  | CCCC(=O)Nc1ccc(F)c(Cc2c[nH]c3ncc(-c4cccnc4)cc23)c1F [Compound P-1280] | 
≤ 10 | ≤ 10 | CCCS(=O)(=O)Nc1ccc(F)c(C(=O)c2c[nH]c3ncc(-c4cccnc4)cc23)c1F [Compound P-0088, Propane-1-sulfonic acid [2,4-difluoro-3-(5-pyridin-3-yl-1H-pyrrolo[2,3-b]pyridine-3-carbonyl)-phenyl]-amide] | 
≤ 10 |  | O=C(c1cc(O)ccc1F)c1c[nH]c2ncc(-c3cccs3)cc12 [Compound P-0032] | IC50 (Flt4): ≤ 10 µM
 | ≤ 10 | Cc1ccc(F)cc1C(=O)c1c[nH]c2ncc(-c3cccc(N)c3)cc12 [Compound P-0040] | IC50 (Flt4): ≤ 10 µM
 | ≤ 10 | CCCCNC(=O)Nc1ccc(F)c(C(=O)c2c[nH]c3ncc(-c4cccnc4)cc23)c1F [Compound P-1318, 1-Butyl-3-[2,4-difluoro-3-(5-pyridin-3-yl-1H-pyrrolo[2,3-b]pyridine-3-carbonyl)-phenyl]-urea] | 
≤ 10 |  | Oc1ccc(F)c(Cc2c[nH]c3ncc(-c4cccnc4)cc23)c1F [Compound P-0078, 2,4-difluoro-3-(5-pyridin-3-yl-1H-pyrrolo[2,3-b]pyridin-3-ylmethyl)-phenol] | 
≤ 10 |  | CCCS(=O)(=O)Nc1ccc(F)c(C(=O)c2c[nH]c3ncc(-c4ccccc4)cc23)c1F [Compound P-0636, Propane-1-sulfonic acid [2,4-difluoro-3-(5-phenyl-1H-pyrrolo[2,3-b]pyridine-3-carbonyl)-phenyl]-amide] | 
